Data published in ChEMBL document CHEMBL2407022, “Advancement of Imidazo[1,2-a]pyridines with Improved Pharmacokinetics and Nanomolar Activity Against Mycobacterium tuberculosis” (ACS Med Chem Lett, 2013).
≈ marks a conversion by molar mass, not a printed value.

Experiments:
Assay type in all cases: functional
Conditions in all cases: 336 h
[1] = test system: Mycobacterium tuberculosis; experiment: Antimycobacterial activity against isoniazid, rifampin, ethambutol, kanamycin and rifabutin-resistant Mycobacterium tuberculosis after 14 days
[2] = test system: Mycobacterium tuberculosis; experiment: Antimycobacterial activity against isoniazid, rifampin, ethambutol, streptomycin, kanamycin and ofloxacin-resistant Mycobacterium tuberculosis after 14 days
[3] = test system: Mycobacterium tuberculosis; experiment: Antimycobacterial activity against isoniazid, rifampin, ethambutol, kanamycin and ofloxacin-resistant Mycobacterium tuberculosis after 14 days

Which results are given for `Cc1ccn2c(C(=O)NCc3ncc(C(F)(F)F)cc3Cl)c(C)nc2c1`?
MIC99 [1]: 13 µM (≈ 4.98 µg/mL); MIC99 [2]: 0.8 µM (≈ 0.306 µg/mL)

For `Cc1ccc2nc(C)c(C(=O)NCc3ccccc3)n2c1`, which MIC99 [1] is on record?
The MIC99 was 2.3 µM (≈ 0.642 µg/mL).

And the MIC99 [2]?
Its MIC99 is less than 0.04 µM.

And the MIC99 [3]?
Its MIC99 is less than 0.04 µM.

How did the MIC99 [1] turn out when `Cc1ccn2c(C(=O)NCc3ccc(Oc4ccc(F)cc4)cc3)c(C)nc2c1` was run?
Its MIC99 is 0.8 µM (≈ 0.312 µg/mL).

What about the MIC99 [2] of the same compound?
Its MIC99 is less than 0.03 µM.

And the MIC99 [3]?
The MIC99 was less than 0.03 µM.

`O=[N+]([O-])c1cn2c(n1)OC[C@@H](OCc1ccc(OC(F)(F)F)cc1)C2` [PRETOMANID] was tested. Which MIC99 [1] did it give?
Its MIC99 is 0.5 µM (≈ 0.18 µg/mL).

What about the MIC99 [2] of the same compound?
The MIC99 was 0.9 µM (≈ 0.323 µg/mL).

What about the MIC99 [3] of the same compound?
Its MIC99 is 0.2 µM (≈ 0.0719 µg/mL).
